Results taken from US20260209777A1, “TARGETING GLYCOSYLPHOSPHATIDYLINOSITOL (GPI) PATHWAY PROTEINS TO TREAT OVARIAN CANCER” (UNIVERSITY OF MASSACHUSETTS, priority 2023, published 2026).

Key:
Format in all cases: cell-based, human
SKOV3 cells = test: In vitro phagocytosis assay of SKOV3 cells by PBMC-derived M2 macrophages; settings: bestatin 20 μM, tosedostat 20 μM, vs DMSO
OVCAR8 cells = test: In vitro phagocytosis assay of OVCAR8 cells by PBMC-derived M2 macrophages; settings: bestatin 20 μM; for macrophage-mediated phagocytosis: OVCAR8, tosedostat 20 μM, ARM1 2 μM, vs DMSO; for phagocytosis of OVCAR8 cells: tosedostat 10 μM vs DMSO, anti-CD24 antibody (clone SN3) vs IgG (FIG. 9C)
Description: Macrophage Generation and Stimulation: Primary human donor-derived macrophages were generated as described previously (Martinez, Curr Protocol Immunol 2012, Chapter 14:14.28.1-14.28.23). In brief, Leukopaks from anonymous donors were obtained from the Rhode Island Blood (Providence, RI) and peripheral blood […] (PBMCs) were isolated by density gradients centrifugation using Ficoll Paque Plus (Sigma-Aldrich, Cat #17-1440-02) followed by RBC lysis using RBC lysis buffer (eBioscience, Cat #00-4333-57). For monocyte isolation, PBMCs were incubated in Monocyte Attachment Medium (Sigma-Aldrich, Cat #C-28051) for 1 hour at 37° C. and 5% CO2 and then washed three times in Iscove's Modified Dulbecco's Medium (IMDM) (Gibco, Cat #12440053) to remove non-adherent cells. The remaining monocytes were detached and seeded in 96-well plates and cultured at 37° C. and 5% CO2 in IMDM supplemented with 10% FBS (Atlanta Biologicals, Cat #S11550) and 20 ng/ml recombinant human M-CSF (Peprotech, Cat #AF-300-25). After 4 days monocytes were then treated with 20 ng/ml recombinant human IL-4 (Peprotech, Cat #200-04) and 10 ng/mL recombinant human IL-10 (PeproTech, Cat #200-10) for another 3-4 days to obtain M2 polarized macrophages. Macrophage differentiation was confirmed morphologically using microscopy. M2-macrophage polarization was confirmed by immunophenotyping of the M2 marker CD206 using PE-conjugated anti-human anti-CD206 antibody (BioLegend, Cat #321106, clone 15-2, 1:100 dilution). In vitro Phagocytosis Assays: To facilitate the quantification of phagocytic events, we adapted a microscopy-based fluorescence phagocytosis […] al., J Immunol Methods 2009, 342(1-2):71-7; Lindner et al., Biotechniques 2020, 68(5):245-250) for use with a Celigo imaging cytometer. […] Cells were incubated with pHrodo Red, SE (Invitrogen, Cat #P36600) on ice for 30 min and then co-cultured with PBMC-derived M2 macrophages (prepared as described above) at a ratio of 1:2 (OVCAR8/B cells: macrophages) for 2 hours in a humidified 5% CO2 incubator at 37° C. Phagocytic events were quantified by counting the number of red fluorescent (pHrodo+) cells per well using a Celigo Imaging Cytometer (Nexcelom). EmGFP was used for the visualization of cancer cells in imaging Phagocytic events were also quantified using a previously-described flow cytometry-based assay (Barkal et al., Nature 2019, 572(7769):392-396; […] et al., Biomedicines 2022, 10(5):1175). In brief, M2 macrophages co-cultured with OVCAR8/EmGFP-luc cells were detached using TrypLE Express (GibcoTM, cat #12604013), stained with APC anti-human CD11b clone ICRF44 (BioLegend, Cat #982604) and analyzed by flow cytometry (BioRad ZE5). Double-positive EmGFP+CD11b+ cells were considered phagocytic events.

CD24 on normal B cells = test: CD24 flow cytometry analysis in primary B cells; settings: 20 μM bestatin or 10 μM tosedostat vs DMSO (FIG. 9A)
Experimental: Flow Cytometry Analysis: For cell surface protein staining, 1×10^5-1×10^6 cells were first incubated with Fc receptor blocking solution, Human TruStain FcX™ (BioLegend, Cat #422301) for 10 minutes at room temperature. Cells were washed once in FACS buffer (1×PBS, 1.0% bovine serum albumin (BSA) (Sigma) and 0.2% sodium azide (Sigma), and then incubated with antibodies (given below) for 30 minutes at 4° C. in the dark. Cells were also stained with 7-AAD (Biolegend, Cat #420404) for dead cell exclusion, and flow cytometry analysis was performed using a Bio-Rad ZE5 Cell Analyzer. Following antibodies used in this study (all antibodies were used at 1:50 dilution unless otherwise noted): APC anti-human CD24 (BioLegend, Cat #311118, clone ML5), PE anti-human CD24 (eBioscience, Cat #12-0247-42, clone SN3), APC anti-human CD47 (BioLegend, Cat #323124, clone CC2C6), APC anti-human § 2-microglobulin (BioLegend, Cat #395711, clone A17082A), PE anti-human HLA-A2 (MHC-class I) (BioLegend, Cat #343305, clone BB7.2), APC anti-human CD11b (BioLegend, Cat #982604, clone ICRF44), APC anti-mouse F4/80 antibody (BioLegend, Cat #123116, clone BM8), APC-streptavidin (Thermo Fisher Scientific, Cat #SA1005, 1:100 dilution), PE anti-Calreticulin (Invitrogen, Catalog #MA5-15382, 1:200 dilution). […]

## CC(C)C[C@H](NC(=O)[C@@H](O)[C@H](N)Cc1ccccc1)C(=O)O [bestatin]
SKOV3 cells
  macrophage-mediated phagocytosis: substantially increased
OVCAR8 cells
  macrophage-mediated phagocytosis: substantially increased
  phagocytosis of OVCAR8 cells: susceptible
CD24 on normal B cells
  CD24 levels on B cells (MFI): not diminished

## CC(C)C[C@@H](C(=O)N[C@H](C(=O)OC1CCCC1)c1ccccc1)[C@H](O)C(=O)NO [tosedostat]
SKOV3 cells
  macrophage-mediated phagocytosis: increased
OVCAR8 cells
  macrophage-mediated phagocytosis: increased
  phagocytosis of OVCAR8 cells: susceptible
CD24 on normal B cells
  CD24 levels on B cells (MFI): not diminished
